Reference: patent publication US8487121B2, “Chromane derivatives as TRPV3 modulators” (Glenmark Pharmaceuticals S.A., priority 2007, dated 2013)

Molecular target: T1, Human TRPV3 (Homo sapiens, UniProt Q8NET8)
T1 construct: expressed in transfected cells; host or cells: CHO cells (G-418 selected)
T1 sequence (Q8NET8 1-790): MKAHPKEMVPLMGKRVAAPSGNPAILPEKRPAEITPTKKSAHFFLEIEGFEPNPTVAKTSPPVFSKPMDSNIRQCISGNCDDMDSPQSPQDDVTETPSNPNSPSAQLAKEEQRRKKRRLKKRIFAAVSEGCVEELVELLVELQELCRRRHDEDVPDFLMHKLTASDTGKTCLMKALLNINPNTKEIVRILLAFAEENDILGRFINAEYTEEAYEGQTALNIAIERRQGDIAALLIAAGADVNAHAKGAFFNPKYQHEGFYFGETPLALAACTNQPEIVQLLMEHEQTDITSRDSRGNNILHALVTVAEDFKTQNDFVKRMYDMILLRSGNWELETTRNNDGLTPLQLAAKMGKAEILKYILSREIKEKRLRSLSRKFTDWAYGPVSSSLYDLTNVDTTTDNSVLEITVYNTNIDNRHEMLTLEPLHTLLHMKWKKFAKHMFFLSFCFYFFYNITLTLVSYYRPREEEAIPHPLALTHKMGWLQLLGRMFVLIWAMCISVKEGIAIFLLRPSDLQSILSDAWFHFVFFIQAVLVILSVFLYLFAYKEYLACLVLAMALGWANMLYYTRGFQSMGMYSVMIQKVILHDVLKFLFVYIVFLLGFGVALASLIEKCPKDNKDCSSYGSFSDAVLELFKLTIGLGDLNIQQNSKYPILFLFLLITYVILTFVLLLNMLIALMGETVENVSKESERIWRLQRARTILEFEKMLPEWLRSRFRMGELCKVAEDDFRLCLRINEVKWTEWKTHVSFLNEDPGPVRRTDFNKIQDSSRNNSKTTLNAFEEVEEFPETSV
Experiment: 45Calcium uptake assay: inhibition of 2-APB induced cellular uptake of radioactive calcium
Assay type: cell-based
Settings: human TRPV3 expressing CHO cells, 2-APB 500 μM; for inhibition at 1 µM: 1.0 μM compound, read-out: Percentage inhibition at 1.0 μM; for inhibition at 10 µM: 10.0 μM compound, read-out: Percentage inhibition at 10.0 μM
Source text: The illustrative examples of the present invention are screened for TRPV3 activity according to a modified procedure described in Toth, A. et al. Life Sciences (2003), 73, 487-498. The screening of the compounds can be carried out by other methods and procedures known to a person skilled in the art. Such screening methods may be found in Hu, H-Z., et al. J. Biol. Chem. (2004), 279, 35741-35748; Smith, G. D et al. Nature (2002), 418, 186-190 and Peier, A. M., et al. Science (2002), 296, 2046-2049.
Screening for TRPV3 Antagonist Using the ^45Calcium Uptake Assay:
The inhibition of TRPV3 receptor activation was followed as inhibition of 2-APB induced cellular uptake of radioactive calcium. Test compounds were dissolved in DMSO to prepare 20 mM stock and then diluted using plain medium with 0.1% BSA and 1.8 mM CaCl2 to get desired concentration. Final concentration of DMSO in the reaction was 0.5% (v/v). Human TRPV3 expressing CHO cells were grown in F-12 DMEM medium with 10% FBS, 1% penicillin-streptomycin solution, 400 μg/ml of G-418. Cells were seeded 24 h prior to the assay in 96 well plates so as to get ˜50,000 cells per well on the day of experiment. Cells were treated with test compounds for 10 minutes followed by addition of 2-APB at a final concentration of 500 μM and 5 μCi/ml ^45Ca^+2 for 4 minutes. Cells were washed and lysed using buffer containing 1% Triton X-100, 0.1% deoxycholate and 0.1% SDS. Radioactivity in the lysate was measured in Packardt Top count after addition of liquid scintillant.
Concentration response curves were plotted as a % of maximal response obtained in the absence of test antagonist. IC50 value was calculated from concentration response curve by nonlinear regression analysis using GraphPad PRISM software.
Percentage inhibition at concentrations of 1.0 μM and 10.0 μM are given in the table along with IC50 (nM) values for selected examples.

inhibition at 1 µM | inhibition at 10 µM | IC50 | SMILES
29.4% | 46.1% |  | O=C(Cc1noc2ccccc12)N[C@@H]1CC2(CCC2)Oc2ccc(Cl)cc21 [Example 26]
46.8% | 80.6% |  | O=C(CCc1cccc(OC2CCCC2)c1)N[C@H]1CC2(CCC2)Oc2ccc(Cl)cc21 [Example 30, N-[(4S)-6-chloro-3,4-dihydrospiro[chromene-2,1′-cyclobutan]-4-yl]-3-(3-cyclopentyloxy)phenylpropanamide]
24.8% | 43.9% |  | O=C(CCc1ccccc1OC1CCCC1)N[C@H]1CC2(CCC2)Oc2c(Cl)cccc21 [Example 32]
13.5% | 33.9% |  | O=C(CCc1ccccc1OC1CCCC1)N[C@H]1CC2(CCC2)Oc2cc(OCc3ccccc3)ccc21 [Example 33, 7-Benzyloxy-N-(3,4-dihydrospiro[chromene-2,1′-cyclobutan]-4-yl)-3-(2-cyclopentylxoyphenyl)propanamide]
44.8% | 97.6% |  | O=C(CCc1ccccc1-c1ccccn1)NC1CC2(CCC2)Oc2ccc(Cl)cc21 (stereo not drawn) [Example 35, N-(6-Chloro-3,4-dihydrospiro[chromene-2,1′-cyclobutan]-4-yl)-3-(2-pyridin-2-ylphenyl) propanamide]
23.8% | 82.7% |  | COc1cccc(CCC(=O)NC2CC3(CCC3)Oc3ccc(Cl)cc32)c1OC (stereo not drawn) [Example 38, N-(6-Chloro-3,4-dihydrospiro[chromene-2,1′-cyclobutan]-4-yl)-3-(2,3-dimethoxy)-phenylpropanamide]
73.8% | 97.5% | 500 to 1000 nM | COc1cccc(CCC(=O)NC2CC3(CCC3)Oc3ccc(Cl)cc32)c1OC(C)C (stereo not drawn) [Example 39, N-(6-Chloro-3,4-dihydrospiro[chromene-2,1′-cyclobutan]-4-yl)-3-(2-isopropoxy-3-methoxy)phenylpropanamide]
50.8% | 88.8% |  | CCOc1cccc(CCC(=O)NC2CC3(CCC3)Oc3ccc(Cl)cc32)c1OC1CCCC1 (stereo not drawn) [Example 44, N-(6-Chloro-3,4-dihydrospiro[chromene-2,1′-cyclobutan]-4-yl)-3-(2-cyclopentyloxy-3-ethoxy)phenylpropanamide]
 |  | < 500 nM | COc1cccc(CCC(=O)N[C@@H]2CC3(CCC3)Oc3c(Cl)cccc32)c1OC1CCCC1 [Example 47]
52.8% | 77.6% | 500 to 1000 nM | COc1cccc(CCC(=O)NC2CC3(CCC3)Oc3cccc(OCc4ccccc4)c32)c1OC1CCCC1 (stereo not drawn) [Example 50, N-(5-Benzyloxy-3,4-dihydrospiro[chromene-2,1′-cyclobutan]-4-yl)-3-(2-cyclopentyloxy-3-methoxy)phenylpropanamide]
37.1% | 86.7% | 1000 to 2000 nM | COc1cccc(CCC(=O)NC2CC3(CCC3)Oc3cccc(O)c32)c1OC1CCCC1 (stereo not drawn) [Example 51, N-(5-Hydroxy-3,4-dihydrospiro[chromene-2,1′-cyclobutan]-4-yl)-3-(2-cyclopentyloxy-3-methoxy)phenylpropanamide]
39.6% | 92.5% |  | COc1cccc(CCC(=O)NC2CC3(CCC3)Oc3cccc(OC)c32)c1OC1CCCC1 (stereo not drawn) [Example 52, N-(3,4-Dihydrospiro[chromene-2,1′-cyclobutan]-5-methoxy-4-yl)-3-(2-cyclopentyloxy-3-methoxy)phenylpropanamide]

The next lines start with the molecule.

SMILES | inhibition at 1 µM | inhibition at 10 µM | IC50
O=C(Cc1noc2ccccc12)N[C@H]1CC2(CCC2)Oc2ccc(Cl)cc21 [Example 27] | 5.3% | 75.9% | 
O=C(CCc1ccccc1OC1CCCC1)NC1CC2(CCC2)Oc2ccc(Cl)cc21 (stereo not drawn) [Example 28, N-(6-Chloro-3,4-dihydrospiro[chromene-2,1′-cyclobutan]-4-yl)-3-(2-cyclopentyloxyphenyl)propanamide] | 58% | 84.3% | 
O=C(CCc1cccc(OC2CCCC2)c1)N[C@@H]1CC2(CCC2)Oc2ccc(Cl)cc21 [Example 29, N-[(4R)-6-chloro-3,4-dihydrospiro[chromene-2,1′-cyclobutan]-4-yl]-3-(3-cyclopentyloxy)phenyl propanamide] | 43.6% | 88.4% | 
O=C(CCc1ccccc1OC1CCCC1)N[C@@H]1CC2(CCC2)Oc2c(Cl)cccc21 [Example 31, N-1(4R)-(8-Chloro-3,4-dihydrospiro[chromene-2,1′-cyclobutan]-4-yl)-3-(2-cyclopentyloxy)phenyl propanamide] | 78.6% | 97.4% | 500 to 1000 nM
CC(C)S(=O)(=O)Nc1ccccc1CCC(=O)NC1CC2(CCC2)Oc2ccc(Cl)cc21 (stereo not drawn) [Example 34, N-(6-Chloro-3,4-dihydrospiro[chromene-2,1′-cyclobutan]-4-yl)-3-{2-[(isopropylsulfonyl)amino]phenyl}propanamide] | 5.69% | 77.1% | 
COc1cccc(CCC(=O)NC2CC3(CCC3)Oc3ccccc32)c1OC1CCCC1 (stereo not drawn) [Example 37, N-(3,4-Dihydrospiro[chromene-2,1′-cyclobutan]-4-yl)-3-(2-cyclopentyloxy-3-methoxy)phenylpropanamide] | 46.3% | 95.7% | 500 to 1000 nM
COc1ccc(CCC(=O)NC2CC3(CCC3)Oc3ccc(Cl)cc32)cc1Cl (stereo not drawn) [Example 40, N-(6-Chloro-3,4-dihydrospiro[chromene-2,1′-cyclobutan]-4-yl)-3-(3-chloro-4-methoxy)phenylpropanamide] | 6.8% | 93.5% | 
COc1cccc(CCC(=O)NC2CC3(CCC3)Oc3ccc(Cl)cc32)c1OCC1CC1 (stereo not drawn) [Example 41, N-(6-Chloro-3,4-dihydrospiro[chromene-2,1′-cyclobutan]-4-yl)-3-(2-cyclopropylmethoxy-3-methoxy)phenylpropanamide] | 49% | 96.4% | 500 to 1000 nM
COc1cccc(CCC(=O)N[C@@H]2CC3(CCC3)Oc3ccc(Cl)cc32)c1OC1CCCC1 [Example 42] | 47.2% | 95.1% | 500 to 1000 nM
COc1cccc(CCC(=O)N[C@H]2CC3(CCC3)Oc3ccc(Cl)cc32)c1OC1CCCC1 [Example 43] | 64.6% | 91.7% | 500 to 1000 nM
COc1cccc(CCC(=O)NC2CC3(CCC3)Oc3cc(Cl)ccc32)c1OC1CCCC1 (stereo not drawn) [Example 45, N-(7-Chloro-3,4-dihydrospiro[chromene-2,1′-cyclobutan]-4-yl)-3-(2-cyclopentyloxy-3-methoxy)phenylpropanamide] | 59.2% | 94.8% | 500 to 1000 nM
CCOc1c(CCC(=O)NC2CC3(CCC3)Oc3c(Cl)cccc32)cccc1OC (stereo not drawn) [Example 46, N-(8-Chloro-3,4-dihydrospiro[chromene-2,1′-cyclobutan]-4-yl)-3-(2-ethoxy-3-methoxy)phenylpropanamide] | 53.2% | 99.7% | 500 to 1000 nM
COc1cccc(CCC(=O)N[C@H]2CC3(CCC3)Oc3c(Cl)cccc32)c1OC1CCCC1 [Example 48] |  |  | 500 to 1000 nM
COc1cccc(CCC(=O)NC2CC3(CCC3)Oc3cc(C)c(Cl)cc32)c1OC1CCCC1 (stereo not drawn) [Example 49, N-(6-Chloro-7-methyl-3,4-dihydrospiro[chromene-2,1′-cyclobutan]-4-yl)-3-(2-cyclo-pentyloxy-3-methoxy)phenylpropanamide] | 35.4% | 70.1% | 
